The data set in a line: log P determination by HPLC on reversed-phase column (C 18), EEC directive 79/831 Annex V.A8. The class given is physicochemical. The note with it: reversed-phase HPLC column (C 18), acidic range pH 2.3, 43° C. How it is done:
The given log P values were determined in accordance with EEC directive 79/831 Annex V.A8 by HPLC (High Performance Liquid Chromatography) on a reversed-phase column (C 18). Temperature: 43° C. Mobile phases for the determination in the acidic range (pH 2.3): 0.1% aqueous phosphoric acid, acetonitrile; linear gradient from 10% acetonitrile to 90% acetonitrile. Calibration was carried out using unbranched alkan-2-ones (having 3 to 6 carbon atoms) with known log P values (determination of the log P values by the retention times using linear interpolation between two successive alkanones).

Structures are written as SMILES.

We go through one compound from patent US20070082877A1, “Difluoromethylbenzanilides and use thereof for combating micro-organisms, intermediate products and use thereof” (BAYER CORPSCIENCE AKTIENGESELLSCHAFT, priority 2003, published 2007).

What is called chromatographic logP is lipophilicity estimated from chromatographic retention. Low readings indicate a more hydrophilic compound, high ones a more lipophilic compound.

The compound `CC(CC(C)(C)C)c1ccccc1NC(=O)c1ccccc1C(F)F` (stereo not shown) [No. 1, 2-difluoromethyl-N-[2-(1,3,3-trimethylbutyl)phenyl]benzamide] displayed a chromatographic logP of 4.38.
